The source of these data is publication PMC9032776, “Towards Selective Binding to the GLUT5 Transporter: Synthesis, Molecular Dynamics and In Vitro Evaluation of Novel C-3-Modified 2,5-Anhydro-D-mannitol Analogs” (Pharmaceutics, 2022).

Like-named read-outs stand apart in the source and are kept apart here.

Usually Ki stands for the equilibrium dissociation constant of an inhibitor or competing ligand from its target. The term Km denotes the substrate concentration at which the rate is half of its maximum.

Data set [1] has as its target T1, GLUT5 (Mus musculus, UniProt Q9WV38).
T1 construct: GLUT5-expressing murine mammary carcinoma cancer cells (EMT6); endogenous in cells; host or cells: EMT6 murine mammary carcinoma cells
T1 sequence (Q9WV38 1-501): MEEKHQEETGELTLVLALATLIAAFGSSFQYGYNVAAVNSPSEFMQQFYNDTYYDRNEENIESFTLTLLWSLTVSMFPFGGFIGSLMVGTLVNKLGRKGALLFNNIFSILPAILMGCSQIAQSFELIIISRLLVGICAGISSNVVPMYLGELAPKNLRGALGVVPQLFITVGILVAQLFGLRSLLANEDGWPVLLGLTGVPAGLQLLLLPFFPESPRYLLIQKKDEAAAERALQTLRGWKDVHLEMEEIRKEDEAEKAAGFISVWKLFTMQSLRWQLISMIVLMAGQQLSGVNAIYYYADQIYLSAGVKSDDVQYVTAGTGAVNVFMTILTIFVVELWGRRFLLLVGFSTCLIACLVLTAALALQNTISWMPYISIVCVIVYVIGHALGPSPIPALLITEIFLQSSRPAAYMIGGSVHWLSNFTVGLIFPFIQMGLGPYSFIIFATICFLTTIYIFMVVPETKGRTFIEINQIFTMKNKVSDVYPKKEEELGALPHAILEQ
Put plainly: In vitro inhibition of 6-[18F]FDF cell uptake (competition) in EMT6 cells. It is filed as cell-based, murine. Particulars: for Inhibition of 6-[18F]FDF uptake into EMT6 cells (in words): selected concentration range 10^-8-10^-3 and 3 x 10^-2 M; for IC50: 60 min incubation, glucose-free Krebs-Ringer buffer, mean ± SEM from n data points out of 2-4 experiments, read-out: IC50 (mM) against 6-[18F]FDF uptake into EMT6 cells; for Fold better inhibition of 6-[18F]FDF uptake relative to 6-FDF: compared with reference 6-FDF. Here is the method: EMT6 cells were grown to confluence in 12-well cell culture plates with media renewal every 2 days. One hour prior to the experiment, cell culture media was removed and the plates were washed twice with glucose-free Krebs–Ringer buffer solution. To each well, 1 mL of glucose-free Krebs–Ringer buffer solution was added and incubation at 37 °C was continued for 1 h under the glucose-free condition. After one hour, Krebs–Ringer buffer was removed.
After 60 min incubation time, radiotracer uptake was stopped with 1 mL of ice-cold PBS, and the cells were washed twice with PBS and lysed in 0.4 mL radioimmunoprecipitation assay buffer (RIPA buffer). Radioactivity in the cell lysates was then determined as counts per minute (CPM) using a WIZARD2 automatic γ-counter (Perkin Elmer, Waltham, MA, USA) and converted to the radioactivity dose SI unit Becquerel (Bq). Data was analyzed as percentage of maximum uptake of 6-[^18F]FDF. Graphs were constructed using GraphPad Prism 5.0 (GraphPad Software, San Diego, CA, USA) and half-maximum inhibition concentrations (IC50) were determined by graphical analysis of the concentration-inhibition curves.
To analyze the interaction of these novel C-3-modified 2,5-anhydro-D-mannitol analogs with GLUT5, in vitro experiments were carried out in GLUT5-expressing murine mammary carcinoma cancer cells (EMT6) to determine how the varied substitution patterns would impact GLUT5 binding. Furthermore, fructose derivative 6-FDF was used as the reference compound as it was analyzed for its uptake profile through GLUT5 in the past. […] Therefore, when designing novel specific inhibitors for the GLUT5 transporter, it would be reasonable to expect their GLUT5 transport also in a millimolar concentration range, especially when using a radiometric assay that was established with radiolabeled fructose derivative 6-[^18F]FDF in murine EMT6 breast cancer cells and with inhibition by D-fructose and reference compound 6-FDF as internal controls.

Data set [2] has as its system GLUT5. On the set-up: method as in PMID 26306809. The conditions noted are these: read-out: IC50 against D-[14C]fructose; cited from earlier work.
Data set [3] relates to GLUT5. Details: method as in PMID 27074918. Particulars: proteoliposome GLUT5 expression system; read-out: IC50 against D-[14C]fructose; cited from earlier work.
In data set [4] the test system is GLUT5. On the set-up: method as in PMID 27074918. The conditions noted are these: MCF7 human breast cancer cells; read-out: IC50 against D-[14C]fructose; cited from earlier work.
In the next data set the test system is GLUT1. On the set-up: method as in PMID 18398011, PMID 9299540, PMID 15457374, doi:10.1002/bmb.2003.494031030227. The conditions noted are these: cited from earlier work.
Data set [5] concerns the target T1, GLUT5. Particulars: cited from earlier work.
In data set [6] the target is GLUT5. Particulars: human MCF7 breast cancer cells; cited from earlier work.
Data set [7] has as its system GLUT5. The conditions noted are these: read-out: Affinity (Km) of fructose transport through GLUT5; D-[14C]fructose; GLUT5 (human isoform)-expressing oocytes or brush-border membrane vesicles from rat and human intestine; cited from earlier work.
Data set [8] can be described thus: Solubility in Krebs-Ringer buffer. It is filed as physicochemical.
In the next data set the test system is GLUT2. Details: method as in PMID 29142019. The conditions noted are these: murine EMT6 cells; read-out: IC50 against uptake of [18F]FDG; cited from earlier work.

Take `OC[C@H]1O[C@H](CO)[C@@H](NC(=S)Nc2ccc(F)cc2)[C@@H]1O` [Compound 7, 3-deoxy-3-[N-(1-(4-fluorophenyl)thiourea)amino]-2,5-anhydro-D-mannitol]: the “Inhibition of 6-[18F]FDF uptake into EMT6 cells (in words)” value (“Inhibition … (in words)” for short) at GLUT5 [1] is “no effect on 6-[^18F]FDF uptake”. In the case of `C=C1C[C@@]23CC[C@H]4[C@@](C)(CCC[C@@]4(C)C(=O)O[C@@H]4O[C@H](CO)[C@@H](O)[C@H](O)[C@H]4O)[C@@H]2CC[C@]1(O[C@@H]1O[C@H](CO)[C@@H](O)[C@H](O)[C@H]1O)C3` [rubusoside], the IC50 in the data set with GLUT5 [2] is 10.3 mM. Take `CS(=O)(=O)c1ccc(Nc2ccc3c(c2)OCO3)c([N+](=O)[O-])c1` [MSNBA, N-(4-methanesulfonyl-2-nitrophenyl)-2H-1,3-benzodioxol-5-amine]: the IC50 is 0.1 mM with GLUT5 [3] and 5.8 mM in the data set on GLUT5 [4].

Take `OC[C@H]1OC(O)[C@H](O)[C@@H](O)[C@@H]1O` (stereo partly shown) [glucose]: the “Affinity of glucose transport through GLUT1 (K4)” value in the data set with GLUT1 is 1 to 2 mM. For `O=C(CO)[C@@H](O)[C@H](O)[C@H](O)CF` [6-FDF, 6-deoxy-6-fluoro-D-fructose], the IC50 on GLUT5 [5] (murine EMT6 breast cancer cells, read-out: IC50 (half-maximum inhibition concentration) against 6-[18F]FDF uptake) was 19 mM; at GLUT5 [1] it was 17 ± 0.75 mM. Consider `O=C(N[C@H]1[C@H](O)[C@@H](CO)O[C@@H]1CO)c1ccc(F)cc1` [Compound 9, 3-deoxy-3-[N-(4-fluorobenzamide)amino]-2,5-anhydro-D-mannitol], for which the “Inhibition … (in words)” value at GLUT5 [1] is recorded as “no inhibitory activity in the selected concentration range”. Regarding `CN(C)c1cccc2c(S(=O)(=O)N[C@H]3[C@H](O)[C@@H](CO)O[C@@H]3CO)cccc12` [Compound 6, 3-deoxy-3-[N-(5-(dimethylamino)naphthalene-1-sulfonamide)amino]-2,5-anhydro-D-mannitol], on GLUT5 [1], the IC50 stood at 2.29 ± 0.18 mM and the “Fold better inhibition of 6-[18F]FDF uptake relative to 6-FDF” value is “fivefold stronger inhibitory effect”. As for `O=S(=O)(N[C@H]1[C@H](O)[C@@H](CO)O[C@@H]1CO)c1ccc(F)cc1C(F)(F)F` [Compound 5, 3-deoxy-3-[N-(4-fluoro-2-(trifluoromethyl)benzenesulfonamide)amino]-2,5-anhydro-D-mannitol], the “Inhibition … (in words)” value on GLUT5 [1] was “failed to inhibit 6-[^18F] FDF uptake transport at all”. Turning to `O=C(N[C@H]1[C@H](O)[C@@H](CO)O[C@@H]1CO)c1cc2ccc(OCCF)cc2oc1=O` [Compound 11, 3-deoxy-3-[N-(7-(2-fluoroethoxy)-2-oxo-2H-chromene-3-carboxamide)amino]-2,5-anhydro-D-mannitol], at GLUT5 [1], the IC50 is 1.71 ± 0.08 mM and the “Fold better inhibition of 6-[18F]FDF uptake relative to 6-FDF” value is ~ 10 fold. `O=[N+]([O-])c1ccc(NC[C@H]2O[C@H](CO)[C@@H](O)[C@@H]2O)c2nonc12` [NBDM, 1-[N-(7-nitrobenz-2-oxa-1,3-diazole-4-yl)amino]-2,5-anhydro-D-mannitol]: on GLUT5 [6], the Ki was 2.3 to 2.7 mM and the “Transport efficiency through GLUT5 relative to D-fructose” value was “transported twice as efficiently as D-fructose”.

Turning to `OC[C@H]1O[C@H](CF)[C@@H](O)[C@@H]1O` [1-FDAM, 1-deoxy-1-fluoro-2,5-anhydro-mannitol], the IC50 on GLUT5 [5] (estimated earlier by the authors, read-out: IC50 against the uptake of the probe 6-[18F]FDF) was ~20 mM.

Turning to `O=C(O)c1cc(NC(=S)N[C@H]2[C@H](O)[C@@H](CO)O[C@@H]2CO)ccc1-c1c2ccc(=O)cc-2oc2cc(O)ccc12` [Compound 8], the IC50 on GLUT5 [1] is ~20 mM. Regarding `O=C(CO/N=C/c1ccc(F)cc1)N[C@H]1[C@H](O)[C@@H](CO)O[C@@H]1CO` [Compound 10, 3-deoxy-3-[N-(2-(((4-fluorobenzylidene)amino)oxy)acetamide)amino]-2,5-anhydro-D-mannitol], on GLUT5 [1], the “Fold better inhibition of 6-[18F]FDF uptake relative to 6-FDF” value is recorded as ~ 10 fold. Consider `O=S(=O)(N[C@H]1[C@H](O)[C@@H](CO)O[C@@H]1CO)c1ccc(F)cc1` [Compound 4, 3-deoxy-3-[N-(4-fluorobenzenesulfonamide)amino]-2,5-anhydro-D-mannitol], for which the IC50 on GLUT5 [1] was ~6 mM.

As to `O=C(CO)[C@@H](O)[C@H](O)[C@H](O)CO` [Fructose, D-fructose], in the data set on GLUT5 [7], the Michaelis constant (Km) was 11 to 15 mM. For the same compound, the Solubility entry in [8] is listed as “freely soluble”. Further, the IC50 with GLUT2 is 80 mM.
